Assays:
Assay type in all cases: in vivo
[1] = test system: Italian ryegrass (Lolium multiflorum); assay: Test A preemergence, visual injury rating
Summary of the method: (§1)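 Pre- and postemergence greenhouse screen. Soil: loam + sand. Spray carrier: solvent mixture, non-phytotoxic, with surfactant. Post timing at 1–2 leaves, height 2–10 cm. Readout: visual injury on a 0–100 scale roughly 10 days after application, untreated plants as reference.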

[2] = test system: barnyardgrass (Echinochloa crus-galli); assay: Test A preemergence, visual injury rating; conditions: for Plant response rating, Barnyardgrass: 31 g ai/ha, 0 to 100 scale, 0 no effect, 100 complete control; for Barnyardgrass plant response rating: 125 g ai/ha, 0 to 100 scale (0 no effect, 100 complete control)
Summary of the method: as §1

[3] = test system: giant foxtail (Setaria faberii); assay: Test A preemergence, visual injury rating
Summary of the method: as §1

kochia (Kochia scoparia) [4] = assay: Test A preemergence, visual injury rating
Summary of the method: as §1

[5] = test system: pigweed (Amaranthus retroflexus); assay: Test A preemergence, visual injury rating
Summary of the method: as §1

[6] = test system: ragweed (common ragweed, Ambrosia elatior); assay: Test A preemergence, visual injury rating
Summary of the method: as §1

[7] = test system: Italian ryegrass (Lolium multiflorum); assay: Test A postemergence, visual injury rating; conditions: 0 to 100 scale, 0 is no effect, 100 is complete control, approximately 10 days
Summary of the method: as §1

[8] = test system: barnyardgrass (Echinochloa crus-galli); assay: Test A postemergence, visual injury rating; conditions: 0 to 100 scale, 0 is no effect, 100 is complete control, approximately 10 days
Summary of the method: as §1

[9] = test system: blackgrass (Alopecurus myosuroides); assay: Test A postemergence, visual injury rating; conditions: 0 to 100 scale, 0 is no effect, 100 is complete control, approximately 10 days
Summary of the method: as §1

corn (Zea mays) = assay: Test A postemergence, visual injury rating; conditions: 0 to 100 scale, 0 is no effect, 100 is complete control, approximately 10 days
Summary of the method: as §1

[10] = test system: galium (catchweed bedstraw, Galium aparine); assay: Test A postemergence, visual injury rating; conditions: 0 to 100 scale, 0 is no effect, 100 is complete control, approximately 10 days
Summary of the method: as §1

[11] = test system: giant foxtail (Setaria faberii); assay: Test A postemergence, visual injury rating; conditions: 0 to 100 scale, 0 is no effect, 100 is complete control, approximately 10 days
Summary of the method: as §1

kochia (Kochia scoparia) [12] = assay: Test A postemergence, visual injury rating; conditions: 0 to 100 scale, 0 is no effect, 100 is complete control, approximately 10 days
Summary of the method: as §1

[13] = test system: pigweed (Amaranthus retroflexus); assay: Test A postemergence, visual injury rating; conditions: 0 to 100 scale, 0 is no effect, 100 is complete control, approximately 10 days
Summary of the method: as §1

[14] = test system: ragweed (common ragweed, Ambrosia elatior); assay: Test A postemergence, visual injury rating; conditions: 0 to 100 scale, 0 is no effect, 100 is complete control, approximately 10 days
Summary of the method: as §1

[15] = test system: wheat (Triticum aestivum); assay: Test A postemergence, visual injury rating; conditions: 0 to 100 scale, 0 is no effect, 100 is complete control, approximately 10 days
Summary of the method: as §1

[16] = test system: barnyardgrass (Echinochloa crus-galli); assay: Test B flooded paddy test, plant response rating; conditions: 250 g ai/ha; Flood; scale of 0 to 100 where 0 is no effect and 100 is complete control; 13 to 15 days
Summary of the method: (§2)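 Under a constant 3 cm flood, test compounds went directly into the paddy water. Following 13 to 15 days of greenhouse growth, treated species and controls were compared by eye.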

[17] = test system: ducksalad (Heteranthera limosa); assay: Test B flooded paddy test, plant response rating; conditions: 250 g ai/ha; Flood; scale of 0 to 100 where 0 is no effect and 100 is complete control; 13 to 15 days
Summary of the method: as §2

rice (Oryza sativa) = assay: Test B flooded paddy test, plant response rating; conditions: 250 g ai/ha; Flood; scale of 0 to 100 where 0 is no effect and 100 is complete control; 13 to 15 days
Summary of the method: as §2

[18] = test system: sedge, umbrella (small-flower umbrella sedge, Cyperus difformis); assay: Test B flooded paddy test, plant response rating; conditions: 250 g ai/ha; Flood; scale of 0 to 100 where 0 is no effect and 100 is complete control; 13 to 15 days
Summary of the method: as §2

[19] = 31 g ai/ha, 0 to 100 scale, 0 no effect, 100 complete control
[20] = 125 g ai/ha, 0 to 100 scale (0 no effect, 100 complete control)

Compound: CC(=NOC(C)C)c1c(Cl)cccc1Oc1ncc(Cl)cn1 [Compound 104]
- Plant response rating, Ryegrass, Italian [1, 19]: 0
- Plant response rating, Ryegrass, Italian [1, 20]: 0
- Plant response rating, Barnyardgrass [2]: 0
- Barnyardgrass plant response rating [2]: 30
- Plant response rating, Foxtail, Giant [3, 19]: 0
- Plant response rating, Foxtail, Giant [3, 20]: 40
- Plant response rating, Kochia (kochia (Kochia scoparia) [4]; [19]): 0
- Plant response rating, Kochia (kochia (Kochia scoparia) [4]; [20]): 0
- Plant response rating, Pigweed [5, 19]: 0
- Plant response rating, Pigweed [5, 20]: 40
- Plant response rating, Ragweed [6, 19]: 0
- Plant response rating, Ragweed [6, 20]: 0
- Ryegrass, Italian plant response rating ([7]; 31 g ai/ha): 0
- Ryegrass, Italian plant response rating ([7]; 125 g ai/ha): 0
- Barnyardgrass plant response rating ([8]; 31 g ai/ha): 0
- Barnyardgrass plant response rating ([8]; 125 g ai/ha): 0
- Blackgrass plant response rating ([9]; 31 g ai/ha): 0
- Blackgrass plant response rating ([9]; 125 g ai/ha): 20
- Corn plant response rating (corn (Zea mays); 31 g ai/ha): 0
- Corn plant response rating (corn (Zea mays); 125 g ai/ha): 10
- Galium plant response rating ([10]; 31 g ai/ha): 10
- Galium plant response rating ([10]; 125 g ai/ha): 30
- Foxtail, Giant plant response rating ([11]; 31 g ai/ha): 0
- Foxtail, Giant plant response rating ([11]; 125 g ai/ha): 10
- Kochia plant response rating (kochia (Kochia scoparia) [12]; 31 g ai/ha): 0
- Kochia plant response rating (kochia (Kochia scoparia) [12]; 125 g ai/ha): 10
- Pigweed plant response rating ([13]; 31 g ai/ha): 10
- Pigweed plant response rating ([13]; 125 g ai/ha): 40
- Ragweed plant response rating ([14]; 31 g ai/ha): 0
- Ragweed plant response rating ([14]; 125 g ai/ha): 0
- Wheat plant response rating ([15]; 31 g ai/ha): 0
- Wheat plant response rating ([15]; 125 g ai/ha): 0
- Plant response rating, Barnyardgrass [16]: 0
- Plant response rating, Ducksalad [17]: 75
- Plant response rating, Rice (rice (Oryza sativa)): 0
- Plant response rating, Sedge, Umbrella [18]: 75

Compound: CC(=NOC(C)C)c1c(Br)cccc1Oc1ncc(Cl)cn1 [Compound 105]
- Plant response rating, Ryegrass, Italian [1, 19]: 0
- Plant response rating, Ryegrass, Italian [1, 20]: 0
- Plant response rating, Barnyardgrass [2]: 0
- Barnyardgrass plant response rating [2]: 30
- Plant response rating, Foxtail, Giant [3, 19]: 0
- Plant response rating, Foxtail, Giant [3, 20]: 20
- Plant response rating, Kochia (kochia (Kochia scoparia) [4]; [19]): 0
- Plant response rating, Kochia (kochia (Kochia scoparia) [4]; [20]): 0
- Plant response rating, Pigweed [5, 19]: 0
- Plant response rating, Pigweed [5, 20]: 20
- Plant response rating, Ragweed [6, 19]: 0
- Plant response rating, Ragweed [6, 20]: 0
- Ryegrass, Italian plant response rating ([7]; 31 g ai/ha): 0
- Ryegrass, Italian plant response rating ([7]; 125 g ai/ha): 0
- Barnyardgrass plant response rating ([8]; 31 g ai/ha): 0
- Barnyardgrass plant response rating ([8]; 125 g ai/ha): 0
- Blackgrass plant response rating ([9]; 31 g ai/ha): 0
- Blackgrass plant response rating ([9]; 125 g ai/ha): 10
- Corn plant response rating (corn (Zea mays); 31 g ai/ha): 0
- Corn plant response rating (corn (Zea mays); 125 g ai/ha): 0
- Galium plant response rating ([10]; 31 g ai/ha): 10
- Galium plant response rating ([10]; 125 g ai/ha): 20
- Foxtail, Giant plant response rating ([11]; 31 g ai/ha): 0
- Foxtail, Giant plant response rating ([11]; 125 g ai/ha): 0
- Kochia plant response rating (kochia (Kochia scoparia) [12]; 31 g ai/ha): 0
- Kochia plant response rating (kochia (Kochia scoparia) [12]; 125 g ai/ha): 10
- Pigweed plant response rating ([13]; 31 g ai/ha): 10
- Pigweed plant response rating ([13]; 125 g ai/ha): 30
- Ragweed plant response rating ([14]; 31 g ai/ha): 0
- Ragweed plant response rating ([14]; 125 g ai/ha): 0
- Wheat plant response rating ([15]; 31 g ai/ha): 0
- Wheat plant response rating ([15]; 125 g ai/ha): 0
- Plant response rating, Barnyardgrass [16]: 0
- Plant response rating, Ducksalad [17]: 40
- Plant response rating, Rice (rice (Oryza sativa)): 0
- Plant response rating, Sedge, Umbrella [18]: 0

Compound: C#CCOC(=O)c1c(Br)cccc1Oc1ncc(Cl)cn1 [Compound 108]
- Plant response rating, Ryegrass, Italian [1, 19]: 0
- Plant response rating, Ryegrass, Italian [1, 20]: 0
- Plant response rating, Barnyardgrass [2]: 10
- Barnyardgrass plant response rating [2]: 30
- Plant response rating, Foxtail, Giant [3, 19]: 10
- Plant response rating, Foxtail, Giant [3, 20]: 80
- Plant response rating, Kochia (kochia (Kochia scoparia) [4]; [19]): 0
- Plant response rating, Kochia (kochia (Kochia scoparia) [4]; [20]): 10
- Plant response rating, Pigweed [5, 19]: 0
- Plant response rating, Pigweed [5, 20]: 70
- Plant response rating, Ragweed [6, 19]: 0
- Plant response rating, Ragweed [6, 20]: 0
- Ryegrass, Italian plant response rating ([7]; 31 g ai/ha): 0
- Ryegrass, Italian plant response rating ([7]; 125 g ai/ha): 0
- Barnyardgrass plant response rating ([8]; 31 g ai/ha): 0
- Barnyardgrass plant response rating ([8]; 125 g ai/ha): 10
- Blackgrass plant response rating ([9]; 31 g ai/ha): 0
- Blackgrass plant response rating ([9]; 125 g ai/ha): 0
- Corn plant response rating (corn (Zea mays); 31 g ai/ha): 10
- Corn plant response rating (corn (Zea mays); 125 g ai/ha): 20
- Galium plant response rating ([10]; 31 g ai/ha): 20
- Galium plant response rating ([10]; 125 g ai/ha): 40
- Foxtail, Giant plant response rating ([11]; 31 g ai/ha): 0
- Foxtail, Giant plant response rating ([11]; 125 g ai/ha): 10
- Kochia plant response rating (kochia (Kochia scoparia) [12]; 31 g ai/ha): 20
- Kochia plant response rating (kochia (Kochia scoparia) [12]; 125 g ai/ha): 40
- Pigweed plant response rating ([13]; 31 g ai/ha): 20
- Pigweed plant response rating ([13]; 125 g ai/ha): 50
- Ragweed plant response rating ([14]; 31 g ai/ha): 0
- Ragweed plant response rating ([14]; 125 g ai/ha): 0
- Wheat plant response rating ([15]; 31 g ai/ha): 0
- Wheat plant response rating ([15]; 125 g ai/ha): 0
- Plant response rating, Barnyardgrass [16]: 0
- Plant response rating, Ducksalad [17]: 80
- Plant response rating, Rice (rice (Oryza sativa)): 0
- Plant response rating, Sedge, Umbrella [18]: 60

Compound: N#Cc1cccc(Oc2ncc(Cl)cn2)c1C(=O)CCCCC(F)(F)F [Compound 109]
- Plant response rating, Ryegrass, Italian [1, 19]: 0
- Plant response rating, Ryegrass, Italian [1, 20]: 0
- Plant response rating, Barnyardgrass [2]: 0
- Barnyardgrass plant response rating [2]: 20
- Plant response rating, Foxtail, Giant [3, 19]: 0
- Plant response rating, Foxtail, Giant [3, 20]: 40
- Plant response rating, Kochia (kochia (Kochia scoparia) [4]; [19]): 0
- Plant response rating, Kochia (kochia (Kochia scoparia) [4]; [20]): 0
- Plant response rating, Pigweed [5, 19]: 0
- Plant response rating, Pigweed [5, 20]: 60
- Plant response rating, Ragweed [6, 19]: 0
- Plant response rating, Ragweed [6, 20]: 0
- Ryegrass, Italian plant response rating ([7]; 31 g ai/ha): 0
- Ryegrass, Italian plant response rating ([7]; 125 g ai/ha): 0
- Barnyardgrass plant response rating ([8]; 31 g ai/ha): 0
- Barnyardgrass plant response rating ([8]; 125 g ai/ha): 0
- Blackgrass plant response rating ([9]; 31 g ai/ha): 0
- Blackgrass plant response rating ([9]; 125 g ai/ha): 0
- Corn plant response rating (corn (Zea mays); 31 g ai/ha): 10
- Corn plant response rating (corn (Zea mays); 125 g ai/ha): 20
- Galium plant response rating ([10]; 31 g ai/ha): 0
- Galium plant response rating ([10]; 125 g ai/ha): 30
- Foxtail, Giant plant response rating ([11]; 31 g ai/ha): 0
- Foxtail, Giant plant response rating ([11]; 125 g ai/ha): 0
- Kochia plant response rating (kochia (Kochia scoparia) [12]; 31 g ai/ha): 0
- Kochia plant response rating (kochia (Kochia scoparia) [12]; 125 g ai/ha): 20
- Pigweed plant response rating ([13]; 31 g ai/ha): 20
- Pigweed plant response rating ([13]; 125 g ai/ha): 60
- Ragweed plant response rating ([14]; 31 g ai/ha): 0
- Ragweed plant response rating ([14]; 125 g ai/ha): 20
- Wheat plant response rating ([15]; 31 g ai/ha): 0
- Wheat plant response rating ([15]; 125 g ai/ha): 0
- Plant response rating, Barnyardgrass [16]: 0
- Plant response rating, Ducksalad [17]: 0
- Plant response rating, Rice (rice (Oryza sativa)): 0
- Plant response rating, Sedge, Umbrella [18]: 0

From patent publication US11053204B2, “Pyrimidinyloxy benzene derivatives as herbicides” (FMC Corporation, priority 2015, dated 2021)
